Columns and labels:
[1] = Retention index (RI) measurement by GC/MS; type: physicochemical; conditions: HP-5 MS column (95% dimethylpolysiloxane/5% phenyl-methylpolysiloxane), 1000 ppm in ethanol, n-alkane mixture C6-C35, linear method
Method: Menthol (L-Menthol, manufactured by Takasago International Corporation) and cooling sensation agents (the abovementioned COOLACT® 370, COOLACT® 5, COOLACT® 10, COOLACT® 20, Symcool® WS-5, and Symcool® WS-23) were respectively diluted by adding ethanol to obtain diluted solutions of menthol and each cooling sensation agent diluted to 1000 ppm in ethanol.
Gas chromatography with a mass spectrometer (GC/MS) was then performed on the abovementioned diluted solutions thus obtained.
• Apparatus: 7890B/5977B GC/MSD, manufactured by Agilent Technologies GC conditions • Column: HP-5 MS (manufactured by Agilent Technologies) • Inner diameter 0.25 mm×length 30 m, film thickness 0.25 μm • Injection volume: 1 μL • Injection mode: Split (10:1) • Injection port temperature: 270° C. • Septum purge flow: 5 ml/minute • Carrier gas: Helium (He) • Column flow rate: 1 mL/minute (constant flow mode) • Oven temperature: From 40° C. (3 minutes) to 280° C. (20 minutes) at a rate of 4° C./minute • Transfer line temperature: 280° C. MS conditions • Solvent wait time: 4 minutes • Ionization method: Electron impact ionization (EI), 70 eV • Ion source temperature: 230° C. • Quadrupole temperature: 150° C. • Measurement mode: Scan • MS scan range: m/z 26-450 • Threshold: 50 • Sampling rate: 2
The chromatogram retention index (RI) obtained by the abovementioned GC/MS analysis was calculated by the following method.
The RI of menthol or respective cooling agent was calculated by a linear method on the basis of an n-alkane mixture ranging from n-hexane (C6, RI: 600) to n-pentatriacontane (C35, RI: 3500) Note that the n-alkane mixture used in calculating the RI is not limited thereto.

[2] = Storage resistance by GC/MS: migration from tobacco filler to filter in a closed system; type: physicochemical; conditions: tobacco sticks, 2,500, 5,000 and 10,000 ppm
Method: A solution was prepared by dissolving a methyl menthol derivative (the abovementioned COOLACT® 370) through addition of methanol thereto. The solution thus obtained was added using the microsyringe described above to the tobacco filler of portion of an unheated smoking article (a tobacco stick comprising a tobacco filler portion and a filter portion), using the abovementioned microsyringe, such that the methyl menthol derivative content was 2,500 ppm, 5,000 ppm, or 10,000 ppm relative to the weight of tobacco therein, and the samples immediately after addition were considered to be “pre-storage tobacco stick samples.” Each tobacco stick injected with the methyl menthol derivative was placed in a Lami-Zip bag (AL-5, manufactured by Seisannipponsha), and left in an incubator (an SCI-13 compact incubator, manufactured by Shibata) for 5 days to provide a “post-storage tobacco stick sample.”
The pre-storage and post-storage tobacco stick samples obtained in the abovementioned manner underwent the following processing. • The tobacco filler portion and filter portion were removed from each sample and placed in a separate screw tube, and 10 mL of methanol were added. […]

[3] = Storage resistance by GC/MS: residual rate in tobacco filler in an open system; type: physicochemical; conditions: 5,000 ppm in tobacco filler, open system on a tray, 5 days in an incubator, internal standard quinoline
Method: Solutions were prepared by dissolving menthol and other cooling agents (the abovementioned COOLACT® 370 and Symcool® WS-23) respectively through addition of ethanol thereto. Each solution thus obtained was added to the tobacco filler portion of a combustion smoking article, using a microsyringe (MS-50, Ito Microsyringe, manufactured by Ito Seisakusho), such that that the content of menthol or other cooling sensation agent was 5,000 ppm relative to the weight of the tobacco, and the samples immediately after addition were considered to be “pre-storage cigarette samples.” Each solution thus obtained was also added to the tobacco filler portion of a heat-not-burn smoking article (a tobacco stick comprising a tobacco filler portion and a filter portion), using the abovementioned microsyringe, such that that the menthol or other cooling sensation agent content was 5,000 ppm relative to the weight of the tobacco therein, and the samples immediately after addition were considered to be “pre-storage tobacco stick samples.” The cigarettes and tobacco sticks injected with menthol or other cooling sensation agent were then placed on a tray (DT-1 disposable tray, manufactured by As One), stored for 5 days in an incubator (SCI-13 compact incubator, manufactured by Shibata), and were respectively considered to be “post-storage cigarette samples” and “post-storage tobacco stick samples.”
In addition, 1.0 g of quinoline was precisely weighed out as an internal standard, and diluted to 1 L with methanol to serve as an extraction solvent.
The pre-storage cigarette samples, pre-storage tobacco stick samples, post-storage cigarette samples, and post-storage tobacco stick samples obtained as described above then underwent the following treatment. • The tobacco filler portion was removed from each sample and placed in a screw tube, and 10 mL of the extraction solvent, prepared as described above, was added. The screw tubes were then shaken at 200 rpm for 20 minutes, and, after having been left to stand overnight, shaken again at 200 rpm for 20 minutes to obtain tobacco filler portion extract samples. The extract samples obtained from the pre-storage cigarette samples, pre-storage tobacco stick samples, post-storage cigarette samples, and post-storage tobacco stick samples were respectively considered to be “pre-storage cigarette extract samples,” “pre-storage tobacco stick extract samples,” “post-storage cigarette extract samples,” and “post-storage tobacco stick extract samples.”
The extract samples thus obtained were each collected using a syringe (25 mL, SS-02SZ, manufactured by Terumo Corporation) and filtered through a filter (0.45 μm, Prem Syringe Filter, RC, manufactured by Agilent Technologies), and the liquids obtained after filtration were respectively considered to be extract samples for pre-storage cigarette analysis, extract samples for pre-storage tobacco stick analysis, extract samples for post-storage cigarette analysis, and extract samples for post-storage tobacco stick analysis.
The target ions and qualifier ions shown below were selected for the respective cooling sensation agents. A target ion and qualifier ion were also selected for quinoline, used as the internal standard. • Menthol (target ion: m/z=95.1, qualifier ion: m/z=71.0, 81.1) • […] (target ion: m/z=114.0, qualifier ion: m/z=57.0, 102.0) • COOLACT® 370 (target ion: m/z=211.2, qualifier ion: m/z=97.0, 168.1) • Quinoline (target ion: m/z=129.1, qualifier ion: m/z=76.0, 102.0)
• Column: HP-5 MS (manufactured by Agilent Technologies), inner diameter 0.25 mm×length 30 m, film thickness 0.25 μm • Injection volume: 1 μL • Injection mode: Split (10:1) • Injection port temperature: 270° C. • Septum purge flow rate: 5 mL/minute • Carrier gas: Helium (He) • Column flow rate: 1 ml/minute (constant flow mode) • Oven: 40° C. (for 3 minutes) to 280° C. (for 10 minutes) at 10° C./minute […]

[4] = Preliminary study of cooling sensation intensity; type: in vivo; conditions: similar contents
From the text: Whereas the content of the methyl menthol derivative or cooling agent other than a methyl menthol derivative as a cooling ingredient was 2000 ppm in the abovementioned Examples 1-3 and in Comparative Examples 2 and 4, the content of the cooling ingredient menthol in the abovementioned Comparative Examples 1 and 3 was set to 5,000 ppm, thus adjusting the cooling sensation intensity as much as possible to facilitate comparison, in order to assess cooling sensation intensity in the present sensory evaluation.

[5] = cigarettes (combustion smoking articles)
[6] = tobacco sticks (heat-not-burn smoking articles)

| Structure (SMILES) | Retention index (RI) [1] | Migration from tobacco filler portion to filter portion, post-storage ([2]; closed system (Lami-Zip bag), 5 days in an incubator, FIGS. 10-12) | Migration from tobacco filler portion to filter portion, pre-storage ([2]; immediately after addition, GC/MS total ion chromatograms, FIGS. 7-9) | Residual rate [3, 5] | Residual rate [3, 6] | Cooling sensation intensity compared with methyl menthol derivatives and other cooling agents [4] |
| --- | --- | --- | --- | --- | --- | --- |
| CC(C)[C@@H]1CC[C@@H](C)C[C@H]1OCCO [COOLACT® 5, 2-L-menthoxyethanol] | 1414 |  |  |  |  |  |
| CC1CCC(C(C)C)C(OCC(O)CO)C1 [COOLACT® 10, 3-L-menthoxypropane-1,2-diol] | 1674 |  |  |  |  |  |
| CC(O)CC(=O)O[C@@H]1C[C@H](C)CC[C@H]1C(C)C (stereo partly drawn) [COOLACT® 20, L-menthyl-3-hydroxybutyrate] | 1611 |  |  |  |  |  |
| CC(C)C1CCC(C)(C)CC1C(=O)NCC(O)c1ccccc1 (stereo not shown) [COOLACT® 370, N-(2-hydroxy-2-phenylethyl)-2-isopropyl-5,5-dimethylcyclohexane-1-carboxamide] | 2477 | had not migrated from the tobacco filler portion to the filter portion | did not migrate from the tobacco filler portion to the filter portion | 98.5% | 100% |  |
| CC1CCC(C(C)C)C(O)C1 (stereo not shown) [Menthol] | 1173 |  |  | 15.9% | 10.4% | weaker cooling sensation intensity |
| CCOC(=O)CNC(=O)C1CC(C)CCC1C(C)C (stereo not shown) [Symcool® WS-5, ethyl-2-(p-menthane-3-carboxamido)acetate] | 1942 |  |  |  |  |  |
| CNC(=O)C(C)(C(C)C)C(C)C [Symcool® WS-23, 2-isopropyl-N,2,3-trimethylbutyramide] | 1287 |  |  | 33.5% | 50.2% |  |

— patent US20260206828A1, “CONSTITUENT MEMBER PERFUMED BY FLAVOR RAW MATERIAL AND SMOKING ARTICLE” (Japan Tobacco Inc., priority 2022, published 2026)
